Tests used:
[1] = Compressibility (compression force versus tablet hardness); type: physicochemical; settings: 98% fructose + 2% leucine, direct compression 12 kN
Description: Compressibility: the compressibility was evaluated by measuring the compression force of the compression machine used and the hardness of the tablet. With the same hardness, the formulation that requires less compression force is more compressible.

[2] = Colour change of tablets after direct compression; type: physicochemical; settings: 98% fructose + 2% leucine
Description: The tablets were prepared by direct compression, after 15 min. mixing of the ingredients, using a Korsch XL 400 compression machine with force of 12 kN and rotation speed of 20,000 tablets/h.

[3] = Cracking off, operator observation; type: physicochemical; settings: 98% fructose + 2% leucine; operator evaluation
Description: Cracking off: the cracking off was evaluated directly by the machine operator by observing the tablets both during mould ejection and during the friability test. The tablets must never crack into two mirror-image parts with crack horizontal to the edge, or have visible cracks on the same edge.

[4] = Friability, evaluation by the operator; type: physicochemical; settings: 98% fructose + 2% leucine
Description: Friability: friability is measured with the friabilimeter and relative method described in Pharmacopoeia Europea (note: in our specific case, an evaluation by the operator was performed, not a measurement).

[5] = Tablet stability tests / stability to humidity; type: physicochemical; settings: tablets of 98% fructose + 2% leucine, grape versus commercial fructose
[6] = at 20° C.; cited from earlier work
[7] = studies on mice followed by clinical trials on humans; cited from earlier work
[8] = listed as crystalline grape fructose

O=C(CO)[C@@H](O)[C@H](O)[C@H](O)CO [commercial fructose, fructose]
Compressibility [1]: very poor
colour change of tablet [2]: tendency to form yellow patches

O=C(CO)[C@@H](O)[C@H](O)[C@H](O)CO [grape fructose, fructose]
Compressibility [1]: compressed better
Compressibility [1, 8]: compresses well
Cracking off [3]: does not tend to cracking off
Friability [4]: is not friable
colour change of tablet [2]: did not change colour
colour change of tablet [2, 8]: does not change colour
stability [5]: more stable
stability [5, 8]: more resistant to the stability tests

O=C(CO)[C@@H](O)[C@H](O)[C@H](O)CO [fructose]
solubility in water [6]: approx. 80%

O=C(CO)[C@@H](O)[C@H](O)[C@H](O)CO [fructose extracted from fruit, fructose]
insulin secretion [7]: very low
